Measurements as given in patent US11603552B2 (priority 2020, dated 2023).
“Also recorded” adds a separate entry of the source.

Columns and labels:
SARS PLpro = type: biochemical
[1] = tested on: human cells infected with OC43 coronavirus; type: cell-based
[2] = tested on: endogenous enzymes present in crude tongue scrape lysate; type: biochemical, human
[3] = molecular target: MERS papain-like protease (recombinant) (Middle East respiratory syndrome-related coronavirus, UniProt K9N7C7)
[4] = molecular target: SARS-1 papain-like protease (recombinant) (Severe acute respiratory syndrome coronavirus, UniProt P0C6X7)
[5] = molecular target: SARS-2 papain-like protease (recombinant) (Severe acute respiratory syndrome coronavirus 2, UniProt P0DTD1)
PLpro from SARS-CoV-1 = PLpro from SARS-CoV-1 (Severe acute respiratory syndrome coronavirus, UniProt P0C6X7)
PLpro from SARS-CoV-2 = PLpro from SARS-CoV-2 (Severe acute respiratory syndrome coronavirus 2, UniProt P0DTD1)
MERS PLpro = MERS PLpro (Middle East respiratory syndrome-related coronavirus, UniProt K9N7C7)
SARS-1 = details: cited from earlier work
SARS-2 = details: cited from earlier work
MERS = details: cited from earlier work
NL63 PLP2 (recombinant) = NL63 PLP2 (recombinant) (Human coronavirus NL63, UniProt P0C6X5); type: biochemical; design: cleavage of papain-like protease substrate: key to the marks not given beside the values
[6] = tested on: human cells infected with NL63 coronavirus; type: cell-based; details: NL63, viral enzyme, in vivo (infected human cell lysate), after 15 minutes of incubation
human UCH-L3 = human UCH-L3 (Homo sapiens, UniProt P15374); type: biochemical
Sequence of human UCH-L3 (P15374 whole entry, looked up): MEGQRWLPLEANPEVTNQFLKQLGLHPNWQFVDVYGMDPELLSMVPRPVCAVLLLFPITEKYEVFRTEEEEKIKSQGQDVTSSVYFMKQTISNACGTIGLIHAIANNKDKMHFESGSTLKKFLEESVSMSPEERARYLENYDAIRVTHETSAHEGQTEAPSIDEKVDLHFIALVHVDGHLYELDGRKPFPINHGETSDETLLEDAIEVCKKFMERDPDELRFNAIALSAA

Sequence of NL63 PLP2 (recombinant) (P0C6X5 1640-1886 limits assumed): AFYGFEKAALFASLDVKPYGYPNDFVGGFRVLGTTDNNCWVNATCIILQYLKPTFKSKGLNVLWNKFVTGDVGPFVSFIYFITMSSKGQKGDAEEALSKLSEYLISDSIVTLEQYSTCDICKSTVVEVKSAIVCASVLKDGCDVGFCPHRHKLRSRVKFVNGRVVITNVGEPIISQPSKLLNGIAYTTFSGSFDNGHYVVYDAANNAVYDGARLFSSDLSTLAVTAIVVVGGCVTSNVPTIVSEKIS
Sequence of MERS papain-like protease (recombinant) (K9N7C7 1552-1823 limits assumed): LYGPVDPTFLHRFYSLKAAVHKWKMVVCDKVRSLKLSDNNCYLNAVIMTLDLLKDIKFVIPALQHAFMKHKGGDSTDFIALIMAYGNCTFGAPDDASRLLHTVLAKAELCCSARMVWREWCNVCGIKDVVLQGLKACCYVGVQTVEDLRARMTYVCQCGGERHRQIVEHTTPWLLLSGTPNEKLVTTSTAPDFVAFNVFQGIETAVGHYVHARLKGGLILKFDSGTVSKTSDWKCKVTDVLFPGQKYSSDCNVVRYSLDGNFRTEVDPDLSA
Sequence of MERS PLpro (K9N7C7 1552-1823 limits assumed): as above

Substance: Ac-Abu(Bth)-Dap-G-G (SEQ ID NO. 9)
- specific cleavage by SARS PLpro (not by MERS PLpro or human deubiquitylating enzymes) (SARS PLpro): specifically cleaved

Substance: Ac-Tyr-Dap-G-G (SEQ ID NO. 11)
- specific cleavage by SARS PLpro (not by MERS PLpro or human deubiquitylating enzymes) (SARS PLpro): specifically cleaved

Substance: Ac-hPhe-Dap-G-G (SEQ ID NO. 12)
- specific cleavage by SARS PLpro (not by MERS PLpro or human deubiquitylating enzymes) (SARS PLpro): specifically cleaved

Substance: Ac-hTyr-Phe(guan)-G-G (SEQ ID NO. 10)
- specific cleavage by SARS PLpro (not by MERS PLpro or human deubiquitylating enzymes) (SARS PLpro): specifically cleaved

Substance: L-R-G-G (SEQ ID NO. 1)
- cleavage, percent fluorescence increase relative to uninfected cells [1]: 22%^2
- cleavage by endogenous enzymes present in lysate [2]: is cleaved; also recorded: slight fluorescence increases
- cleavage of papain-like protease substrate [3]: +
- cleavage of papain-like protease substrate [4]: +
- cleavage of papain-like protease substrate [5]: +
- cleavage of substrate (qualitative) (PLpro from SARS-CoV-1): cleave
- cleavage of substrate (qualitative) (PLpro from SARS-CoV-2): cleave
- cleavage of substrate (qualitative) (MERS PLpro): cleave
- Catalytic rate (Kcat) (SARS-1): 8.5e-05 s⁻¹
- Catalytic rate (Kcat) (SARS-2): 0.005 s⁻¹
- Catalytic rate (Kcat) (MERS): 5e-05 s⁻¹

Substance: Tyr-Dap-G-G (SEQ ID NO. 4)
- cleavage, percent fluorescence increase relative to uninfected cells [1]: 34%^3
- cleavage by endogenous enzymes present in lysate [2]: is not cleaved
- cleavage of papain-like protease substrate [4]: ++
- cleavage of papain-like protease substrate [5]: +

Substance: Ubiquitin
- cleavage of papain-like protease substrate (NL63 PLP2 (recombinant)): +++
- times more efficiently cleaved than ISG15 (NL63 PLP2 (recombinant)): 2.5 times
- times more efficiently cleaved than the tetrapeptide (NL63 PLP2 (recombinant)): 120 times
- cleavage, percent fluorescence increase relative to uninfected cells [6]: 24%^1
- cleavage of papain-like protease substrate [3]: ++
- cleavage of papain-like protease substrate [4]: ++
- cleavage of papain-like protease substrate [5]: ++
- cleavage of substrate (qualitative) (PLpro from SARS-CoV-1): cleave
- cleavage of substrate (qualitative) (PLpro from SARS-CoV-2): cleave
- cleavage of substrate (qualitative) (MERS PLpro): cleave
- Catalytic rate (Kcat) (SARS-1): 0.167 s⁻¹
- Catalytic rate (Kcat) (SARS-2): 1.26 s⁻¹
- Catalytic rate (Kcat) (MERS): 0.313 s⁻¹

Substance: hTyr-Dap-G-G (SEQ ID NO. 13)
- recognition of the substrate (human UCH-L3): do not recognize
